{
  "source": "patent US7935485B2",
  "about": "“Genetic polymorphisms for identifying individuals at risk for drug-induced vestibular dysfunction” (University of Maryland College Park, priority 2007, dated 2011)",
  "key": {"vestibular hair cell": {"tested_on": "vestibular hair cell", "settings": "by inhibiting NO and ROS production; cited from earlier work"}, "[1]": {"settings": "cited from earlier work"}, "[2]": {"settings": "in vivo; cited from earlier work"}, "[3]": {"assay": "Case/control study, subject characteristics of cases with GM-induced vestibular dysfunction", "format": "in vivo, human", "settings": "attributed to GM therapy", "procedure": "Subjects: Subjects were recruited for participation in a case/control study. Cases were recruited from various vestibular dysfunction support groups through advertisements and direct mailings. Cases were included if they could document profound unilateral or bilateral vestibular loss due specifically to GM administration after the age of 18 yr. […] Normal vestibular function was determined with the use of a clinical balance function questionnaire and medical history information. There are no apparent sex or racial differences in susceptibility to GM-induced vestibular dysfunction, so no inclusion limitations were made on those parameters, although the vast majority of recruited subjects were white. Because allele frequencies for many polymorphisms differ by race and only 10 non-white subjects completed the study, all results are presented for the 263 white participants. Children have higher risk for GM-induced ototoxicity, so only individuals >18 yr. and who were >18 yr. at the time of GM therapy were included. All subjects provided written informed consent and all procedures were approved by the University of Maryland Institutional Review Board.\nProcedures: Potential subjects completed medical history and balance function questionnaires, and patients specifically provided medical record release authorizations. […]"}, "[4]": {"settings": "provided simultaneously with GM; cited from earlier work"}},
  "note": "Entries after “also recorded” stand apart in the source; their conditions may differ.",
  "data": [
    {"molecule": "O[C@@H]1CO[C@H]2[C@@H]1OC[C@@H]2O", "note": "[isosorbide]", "values": [
      {"measurement": "effect on GM-induced vestibular hair cell death", "setting": "vestibular hair cell", "value": "delay GM-induced vestibular hair cell death"}
    ]},
    {"molecule": "gentamicin [GM]", "values": [
      {"measurement": "vestibular dysfunction", "setting": "[1]; GM-treated patients (33), different patients than those with auditory dysfunction", "value": "three"},
      {"measurement": "auditory dysfunction", "setting": "[1]; GM-treated patients, number affected of 33", "value": "three of 33"},
      {"measurement": "metabolism", "setting": "[2]", "value": "not metabolized, but simply excreted by the kidney; also recorded: not metabolized by the body"},
      {"measurement": "Hearing complications, (%)", "setting": "[3]", "value": "(34%)"},
      {"measurement": "Renal complications, (%)", "setting": "[3]", "value": "(14%)"}
    ]},
    {"molecule": "BDNF: brain-derived neurotrophic factor, a neurotrophic factor (protein, UniProt P23560 19-247, looked up) Neurotrophic factor BDNF …: APMKEANIRGQGGLAYPGVRTHGTLESVNGPKAGSRGLTSLADTFEHVIEELLDEDQKVRPNEENNKDADLYTSRVMLSSQVPLEPPLLFLLEEYKNYLDAANMSMRVRRHSDPARRGELSVCDSISEWVTAADKKTAVDMSGGTVTVLEKVPVSKGQLKQYFYETKCNPMGYTKEGCRGIDKRHWNSQCRTTQSYVRALTMDSKKRIGWRFIRIDTSCVCTLTIKRGR", "values": [
      {"measurement": "effect on ototoxic damage", "setting": "[4]", "value": "limits ototoxic damage"}
    ]}
  ]
}
